Test results published in US20090247558A1, “USE OF THE CRH (CORTICOTROPIN RELEASING HORMONE) - UCN (UROCORTIN) SYSTEM IN THE TREATMENT OF INFLAMMATORY DISEASES” (priority 2002, published 2009).
No end group written: not given here.

Tests used:
[1] = test system: RAW-264.7 macrophages; assay: Apoptosis and proliferation of RAW264.7 macrophages (nucleosome formation, flow cytometry); type: cell-based, mouse
Description: (§1) Cells were plated in 96-well plates at an initial concentration of 10,000 cells per well. Apoptosis was measured by direct determination of nucleosomal DNA fragmentation with the “cell death detection” ELISA plus kit according to the manufacturer's protocol.
(§2) Cells were treated with UCN and/or LPS at the indicated concentrations for different time points, collected in PBS and incubated with 7-amino-actinomycin (7AAD) for 10 minutes. Cells were washed and analyzed by Flow Cytometry (Coulter).

[2] = test system: primary bone marrow macrophages; assay: Apoptosis of primary bone marrow macrophages; type: cell-based
Description: as §1, §2

[3] = test system: RAW264.7 cells; assay: Stress kinase, Bax and Fas Ligand in RAW264.7 cells (Western blot); type: cell-based, mouse
Description: Following stimulation cells were harvested and lyzed in 62.5 mM Tris HCl pH=6.8, 10% glycerol, 2% SDS, and freshly added inhibitors phenylmethylsulfonyl fluoride (10 μg/ml), 0.5 mM DTT and 50 mM Na2F.

[4] = target: T1, CRH-R2 receptor (Mus musculus, UniProt Q60748); details: cited from earlier work
T1 construct: monocyte/macrophage cells which express both the CRH-R1 and the CRH-R2 receptors on the surface; endogenous in cells; host or cells: macrophages
T1 sequence (Q60748 whole entry): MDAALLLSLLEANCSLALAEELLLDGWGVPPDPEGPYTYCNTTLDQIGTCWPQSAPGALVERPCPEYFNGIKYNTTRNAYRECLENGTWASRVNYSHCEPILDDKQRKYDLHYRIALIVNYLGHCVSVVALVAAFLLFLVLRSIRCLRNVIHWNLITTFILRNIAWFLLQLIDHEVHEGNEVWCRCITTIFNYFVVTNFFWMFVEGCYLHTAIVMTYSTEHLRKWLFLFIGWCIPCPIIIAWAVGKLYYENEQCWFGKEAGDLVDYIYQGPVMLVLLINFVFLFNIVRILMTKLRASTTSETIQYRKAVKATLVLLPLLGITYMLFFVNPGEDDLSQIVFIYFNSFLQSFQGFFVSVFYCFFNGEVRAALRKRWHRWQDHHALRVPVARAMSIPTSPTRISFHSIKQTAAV

## urocortin (DNPSLSIDLTFHLLRTLLELARTQSQRERAEQNRIIFDSV; ends and bridges not checked; UniProt P55089 83-122, looked up) [UCN]
[1]; cells cultured in the presence of serum
  cell proliferation: promoted cell proliferation
[1]; serum-deprived, LPS-induced cells, 10^−9M UCN, 10 μg/ml LPS
  apoptosis: promoted apoptosis
[2]
  LPS-induced apoptosis: enhanced
[3]; UCN plus LPS
  LPS-induced p38MAPK and JNK activation: enhances
[3]; UCN treatment
  Bax: upregulation
  Fas Ligand expression: enhancement
  activation of the stress-induced kinases JNK and p38MAPK: rapid activation
[4]
  apoptosis on macrophages: induce apoptosis
